One assay deals with T1, His-hSHIP1 enzyme (Homo sapiens, UniProt Q92835).
T1 sequence (Q92835 1-1189): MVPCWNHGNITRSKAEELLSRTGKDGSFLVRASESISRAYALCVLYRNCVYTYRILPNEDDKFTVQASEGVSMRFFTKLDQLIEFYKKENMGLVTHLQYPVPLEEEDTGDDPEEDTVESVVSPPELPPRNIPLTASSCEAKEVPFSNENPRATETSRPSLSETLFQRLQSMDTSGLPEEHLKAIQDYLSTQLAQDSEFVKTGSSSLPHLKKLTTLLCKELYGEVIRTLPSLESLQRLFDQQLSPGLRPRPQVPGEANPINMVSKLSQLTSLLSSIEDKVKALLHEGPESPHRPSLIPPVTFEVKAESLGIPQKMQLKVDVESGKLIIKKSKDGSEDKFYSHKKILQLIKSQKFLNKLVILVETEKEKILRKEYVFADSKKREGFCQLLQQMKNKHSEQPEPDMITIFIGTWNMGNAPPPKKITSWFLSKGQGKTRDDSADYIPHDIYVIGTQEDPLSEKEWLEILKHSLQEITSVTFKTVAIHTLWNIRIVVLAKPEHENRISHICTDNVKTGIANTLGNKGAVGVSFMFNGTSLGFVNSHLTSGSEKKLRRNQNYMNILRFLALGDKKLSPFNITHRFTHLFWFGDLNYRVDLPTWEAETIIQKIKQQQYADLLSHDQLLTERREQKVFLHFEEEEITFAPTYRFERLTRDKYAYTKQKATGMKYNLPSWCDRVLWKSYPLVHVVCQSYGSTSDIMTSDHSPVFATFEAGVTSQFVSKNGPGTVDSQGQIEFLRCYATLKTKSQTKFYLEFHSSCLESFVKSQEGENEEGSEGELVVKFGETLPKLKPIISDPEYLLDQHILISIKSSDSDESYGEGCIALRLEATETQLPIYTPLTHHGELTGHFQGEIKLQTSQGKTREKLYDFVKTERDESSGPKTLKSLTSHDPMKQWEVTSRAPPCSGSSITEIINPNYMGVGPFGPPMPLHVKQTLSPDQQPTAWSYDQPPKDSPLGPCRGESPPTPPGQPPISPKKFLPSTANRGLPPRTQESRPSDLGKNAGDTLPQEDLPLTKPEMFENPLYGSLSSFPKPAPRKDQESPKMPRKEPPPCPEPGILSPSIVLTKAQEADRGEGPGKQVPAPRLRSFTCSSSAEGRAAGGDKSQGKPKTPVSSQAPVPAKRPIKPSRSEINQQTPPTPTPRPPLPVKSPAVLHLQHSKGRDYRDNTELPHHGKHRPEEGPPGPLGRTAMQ
Kind of assay: His-hSHIP1 phosphatase activity assay (IP4 substrate, Biomol Green). Type of assay: biochemical. To be noted: percentage increase relative to background; concentrations ≦300 μM. In short, it runs like this:
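His-hSHIP1 (15–20 ng) was incubated with IP4 (50 μM final) and compound (0–300 μM final, from 10% ethanol solutions) in 20 mM Tris-HCl, 10 mM MgCl2 pH 7.5, 0.02% Tween 20 for 15 min at 37 °C. Released phosphate was read with Biomol Green at 650 nm. Activation is % increase over background, scored + (<50%), ++ (≥50% but <65%), +++ (≥65%).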

For assay [1], the system named is allergen-induced passive cutaneous anaphylaxis. The assay can be described thus: Passive cutaneous anaphylaxis in mice. Type of assay: in vivo. To be noted: oral gavage, doses less than 20 mg/kg. On the procedure: The activity of representative compounds on passive cutaneous anaphylaxis in mice was evaluated according to the procedures disclosed by Ovary, J Immunol 81, 355-357, 1958 and Halpern et al., Br J Pharmacol Chemother 20, 389-398, 1963, both of which are incorporated herein by reference in their entirety. To induce a passive cutaneous anaphylaxis, mice underwent intradermal ear inoculation on their right ear with 25 ng in 20 μL of anti-DNP-IgE. The left ears were untreated and served as negative controls. Twenty-four hours after inoculation, all mice were administered test compound by oral gavage (PO). Sixty minutes after oral administration, mice were given a tail vein injection of 2% Evan's blue (0.2 μm filtered, in 200 μL saline) followed by a second tail IV injection of 100 μg DNP-HSA (in 200 μL). Sixty minutes following the DNP-HSA injection, mice were euthanized using CO2 inhalation. Subsequently, ear biopsies were performed by taking four millimetre punches from both ears, which then underwent Evan's Blue extraction using formamide incubation in 96 well plates. Eighty μL of eluents were transferred to flat-bottom 96-well plates and absorbance read using SpectraMax M5 spectrophotometer (Molecular Devices, Sunnyvale, Calif., USA) at 620 nm. Background readings from all samples were taken at 740 nm and subtracted from the 620 nm readings. Data were reported as OD. […] Scoring in Table 4 is expressed as follows: + (1-30% inhibition); ++ (31-50% inhibition); +++ (>50% inhibition).

For assay [2], the system named is Akt phosphorylation in Molt-4 (PTEN−/SHIP1+) cells. Kind of assay: Akt phosphorylation in IGF-1 stimulated Molt-4 lymphocytes (western blot). The format is cell-based. Set-up: key: +: inhibits Akt phosphorylation at 10 μM; −: no effect on Akt phosphorylation at 10 μM. The following applies: 10 μM; IGF-1 stimulation. The procedure:
(§1) Jurkat (PTEN−/SHIP1−) or Molt-4 (PTEN−/SHIP1+) cells were starved in serum free RPMI for overnight. In a 15 mL conical tube, 2-3 million serum starved cells (1 million cells per mL) were treated with various concentrations of test compound (0.1, 1, or 10 μM final in 0.1% DMSO) for 30 min at 37° C. followed by stimulation with 100 ng/mL of IGF-1 for 1 hour at 37° C. After stimulation, cells were washed once with ice-cold DPBS and lysed with Lysis Buffer (20 mM Tris-HCl, pH 7.5, 140 mM NaCl, 1% NP-40, Complete Mini Protease Inhibitor Cocktail, 10 mM NaF, 1 mM Na3VO4, 1 mM β-glycerolphosphate) on ice for 30 min with vortexing every 10 min. Samples were then centrifuged at 13,000 rpm for 20 min, and supernatants were collected as total cell lysate samples. Protein concentration was determined using bicinchonic acid assay, and about 15 μg of total protein from each sample was loaded and separated on a 4-12% Tris-Glycine gel. After SDS-PAGE, proteins were transferred from the gel to a nitrocellulose membrane. The membrane was blocked in 5% BSA in PBS containing 0.1% Tween-20 (PBS-T) for 1 hour at room temperature before probing with primary antibodies for overnight at 4° C. The following antibodies were used: mouse anti-SHIP1 (1:500 dilution; Santa Cruz, Calif., USA), rabbit anti-phospho-Akt(Ser473) (1:1000 dilution; Cell Signaling Technologies, MA, USA), rabbit anti-Akt (1:1000; Cell Signaling Technologies, MA, USA), and rabbit anti-actin (1:2000; Cell Signaling Technologies, MA, USA). The membrane was then incubated with goat anti-rabbit or anti-mouse secondary antibodies (1:3000) for 1 hour at room temperature. Target proteins on the membrane were detected with ECL solution and exposed on a film.
(§2) Scoring in Table 3 is expressed as follows: + (inhibits Akt phosphorylation at 10 μM); − (no effect on Akt phosphorylation at 10 μM).

For assay [3], the system named is Akt phosphorylation in Jurkat (PTEN−/SHIP1−) cells. Kind of assay: Akt phosphorylation in IGF-1 stimulated Jurkat lymphocytes (western blot). Type of assay: cell-based. Also on record: key: +: inhibits Akt phosphorylation at 10 μM; −: no effect on Akt phosphorylation at 10 μM. The following applies: 10 μM; IGF-1 stimulation. On the procedure:
as §1, §2
A general note: A western blot detects proteins with antibodies after separation by electrophoresis.

The next assay concerns OPM2 cells. Kind of assay: Inhibition of OPM2 proliferation (BrdU ELISA). Type of assay: cell-based. The following applies: Homo sapiens, OPM-2, 72 hours, read-out: Scoring: % inhibition of OPM2 proliferation. On the procedure: Test compounds were dissolved in 100% DMSO to form stock solutions. Prior to screening, the stock solutions were diluted with complete media (RPMI 1640 containing 10% fetal calf serum, 2 mM L-glutamine and 50 U/mL each of penicillin and streptomycin) to form working assay solutions that contain 0.2% DMSO. The assay was initiated by adding 30,000 OPM2 cells (in 50 μL) to 50 μL of representative compounds at concentrations ranging from 0.03 to 30 μM. The cells were incubated for 72 hours in a humidified CO2 incubator with the addition of 10 μM BrdU for the final 6 hours according to the directions from the Roche BrdU Cell Proliferation ELISA kit used to detect proliferation (Roche, Cat. No. 11 647 229 001). OPM2 cells incubated in 0.1% DMSO in complete media were used as a negative control and the PI3Kα Inhibitor 2 (3-[4-(4-morpholinyl)thieno[3,2-d]pyrimidin-2-yl-phenol, Cayman Chemical, Cat. No. 10010177) was used as a positive control for inhibition of proliferation. At the end of the incubation, the plate containing the labeled cells was centrifuged, the supernatant removed and the cell pellets dried at 60° C. for 1 hour and stored at 4° C. until further analysis. Analysis of BrdU incorporation was done according to the manufacturer's instructions.
On the technique in general: Dividing cells build labelled thymidine or BrdU into new DNA.

Each structure is given as a SMILES string. Where only a bound is given, the exact number is not on record here.

The values below come from US8101605B2, “SHIP1 modulators and methods related thereto” (Aquinox Pharmaceuticals Inc., priority 2009, dated 2012).

`CC1(C)CCC[C@]2(C)[C@H]3COc4c(O)cc(O)cc4[C@]3(C)CC[C@@H]12` [Compound No. 43, (1R,10R,11S,16S)-1,11,15,15-tetramethyl-8-oxatetracyclo[8.8.0.0^2,7.0^11,16]octadeca-2,4,6-triene-4,6-diol]: the “Scoring: percent (%) activation of His-hSHIP1 enzyme” value (“Scoring: percent (%) activation” for short) on His-hSHIP1 enzyme is recorded as “+ (<50%)”. Moreover, the “Scoring: inhibition of passive cutaneous anaphylaxis” value in assay [1] is “+ (1-30% inhibition)”.

On to `CC1(C)CCC[C@]2(C)[C@H]3COc4cc(O)cc(O)c4[C@]3(C)CC[C@@H]12` [Compound No. 50, (1R,10R,11S,16S)-1,11,15,15-tetramethyl-8-oxatetracyclo[8.8.0.0^2,7.0^11,16]octadeca-2,4,6-triene-3,5-diol], for which the “Scoring: percent (%) activation” value at His-hSHIP1 enzyme is given as “+ (<50%)”. For the same molecule, in assay [2], the “Akt phosphorylation, Molt-4 (SHIP1+)” value is on record as “+”. Moreover, the “Akt phosphorylation, Jurkat (SHIP1−)” value in assay [3] was “−”.

On to `COC(=O)CNC(=O)c1cc(O)c2c(c1)S(=O)(=O)C[C@@H]1[C@@]3(C)CCCC(C)(C)[C@@H]3CC[C@@]21C` [compound 92, methyl 2-{[(1R,10R,11S,16S)-3-hydroxy-1,11,15,15-tetramethyl-8,8-dioxo-8λ^6-thiatetracyclo[8.8.0.0^2,7.0^11,16]octadeca-2,4,6-trien-5-yl]formamido}acetate], for which the “Scoring: percent (%) activation” value on His-hSHIP1 enzyme is “+ (<50%)”. Further, the inhibition at 30 µM with OPM2 cells is not below 75%.

Take `CC1(C)CCC[C@]2(C)[C@H]3CS(=O)(=O)c4cc(C(=O)N5CCNCC5)cc(O)c4[C@]3(C)CC[C@@H]12` [compound 102, (1R,10R,11S,16S)-3-hydroxy-1,11,15,15-tetramethyl-5-[(piperazin-1-yl)carbonyl]-8λ^6-thiatetracyclo[8.8.0.0^2,7.0^11,16]-octadeca-2,4,6-triene-8,8-dione]: the “Scoring: percent (%) activation” value at His-hSHIP1 enzyme was “+ (<50%)”. For the same molecule, the inhibition at 30 µM with OPM2 cells was not below 75%.
